Laboratory results taken from patent US20160151410A1, “CLEARANCE OF BIOACTIVE LIPIDS FROM MEMBRANE STRUCTURES BY CYCLODEXTRINS” (The Trustees of Columbia University in the City of New York, priority 2013, published 2016).
Entries after “also recorded” stand apart in the source; their conditions may differ.

Legend:
[1] = system: rabbit cornea after alkali burn; test: Rabbit corneal neovascularization by alkali burn; type: in vivo
Procedure: Alkali burn on central cornea was performed with 6 mm filter paper disc wetted with 8 μl of 1M NaOH. Cornea were then extensively washed with PBS, followed by treatment with control formula (left eye) and cyclodextrin formula (right eye) as described in Materials and Methods. The bottom two pictures are fluorescein angiograms showing the leaking new vessels in the cornea. White arrows in pictures show corneal neovascularization.
3 New Zealand white rabbits, aged 4-5 months and weighing 1.8-2.6 kg, were obtained from Charles River Laboratories (Wilmington, Mass.) and acclimatized for several weeks before the experiments started. All of the rabbits were anesthetized using ketamine (42 mg/kg) and xylazine (7 mg/kg) intramuscularly. 0.5% proparacaine hydrochloride (Akorn, Inc. Lake Forest, Ill.) was applied topically. Alkali burn on central cornea of both eyes was performed with 6 mm round disc of Whatman No. 1 filter paper wetted with […] of 1M NaOH for exactly 1 minute, filter paper was then removed and the cornea was extensively irrigated with 200 ml of PBS for 10 minutes. Left eye and right eye were then treated with control formula (6 mg/ml of POPC liposome in PBS) and cyclodextrin formula (50 mM HPαCD and 16.7 mM HPβCD in control formula), respectively. […]

[2] = system: lysophospholipids from LIPC-digested human LDL; test: Extraction of lysophospholipids from LIPC-digested LDL by cyclodextrins, read out as complement C3 fixation; type: biochemical; conditions: for complement activation after cyclodextrin extraction of LIPC-digested LDL: 20 mM cyclodextrin
Procedure: Immobilized LDL was digested with LIPC, then 20 mM of different cyclodextrins (A), or 0-20 mM HPαCD (B), or 20 mM HPαCD (C), or 2 mM of HPαCD in combination with 0.5 mg/ml of native LDL (D) are used for 20 hours extraction (A, B, D), or 0-20 hours extraction (C). Complement activation with diluted native human serum was then performed. MβCD—methyl-β-cyclodextrin; HPβCD—hydroxypropyl-β-cyclodextrin.
(§1) 96-well NUNC MaxiSorp plates were coated with 40 μl of human LDL, VLDL, or NaOH-hydrolyzed LDL, all at 200 μg/ml in PBS, at 4° C. overnight then 37° C. for 1 hour, and remaining binding sites were blocked with 3% BSA in PBS at 37° C. for 1 hour. The wells were washed and then incubated with 40 μl of LIPC or CEase in PBS containing 2% BSA at 37° C. for 1 or 2 hours as indicated in Results section, and the degradation reaction was stopped by washing the plate with PBS. For complement system activation, the resulted plate was incubated with 20 μl of 1:1 diluted human sera at 21° C. for 30 minutes. The diluent for serum dilution was PBS containing calcium and magnesium, and human sera that were utilized in our study were native serum, C1q-depleted serum, factor B-depleted serum, native serum with addition of 10 mM of MgCl2 and 20 mM EGTA (Mg-EGTA), and native serum with addition of 10 mM EDTA.
(§2) After thorough washing of the plate, C3 fixation and final membrane attack complex formation on the plate were determined with anti-human C3d antibody and anti-human C5b-9 antibody, in combination with HRP-conjugated secondary antibody, respectively. The monoclonal anti-human C3d antibody is reactive to all C3d-containing fragments of C3, but not with C3 itself, so it detects C3 fixation on the plate and not C3 absorption. The final peroxidase activity was monitored at 450 nm with 3,3′,5,5′-tetramethyl-benzidine and hydrogen peroxide as substrates after 10 or 15 minutes reaction at room temperature.
We tested several cyclodextrins for the ability to extract lysophospholipids from LIPC-digested human LDL. Since lysophospholipid level in lipoprotein is directly related to complement C3 fixation, we use C3 fixation as an indicative parameter for levels of lysophospholipids in lipoprotein. […] We also tested HPαCD upon shuttling of lysophospholipids between LIPC-digested LDL and native LDL, a biological feature of lipid transport (FIG. 4D).

ARPE-19 cells = type: cell-based
Procedure: (A, B) 40-50% confluent ARPE-19 cells in 96-well plate were cultured with serum-free medium for 24 hours, then incubated with 0.1 ml of serum-free medium containing 0-100 μM 1-Palmitoyl-sn-glycero-3-phosphocholine (LPC) for 22 hours. Cell morphology of control cells and 100 μM LPC treated cells was observed under a microscope, as shown in (B). The cells were then incubated with 0.15 ml of serum-free medium containing 0.5 mg/ml MTT at 37° C. for 2 hours. Formation of formazan is detected at 540 nm with 0.1 ml of DMSO as solvent (A). (C) As performed in (A), but with 100 μM LPC pre-incubated for 1 hour with 0-20 mM HPαCD, significant protection of HPαCD on ARPE-19 cells was observed when used at 0.5 mM or greater in medium (marked with *).
Human retinal pigment epithelial cell line, ARPE-19, was purchased from ATCC (Manassas, Va.). The cells were cultured in Dulbecco's modified Eagle's medium supplemented with 10% of heat-inactivated fetal bovine serum (FBS), 100 IU/ml of penicillin, and […] of streptomycin (all cell culture products from Invitrogen-Gibco, Rockville, Md.). Cells were maintained at 37° C. in a 5% CO2 incubator with medium change every 3-4 days. […]
Cell viability was determined with the colorimetric MTT metabolic activity assay. […] After removal of cell culture medium, formation of formazan from MTT reduction was detected at 540 nm with 0.1 ml of DMSO as solvent.

[3] = system: classical pathway of complement system; test: Complement activation (C3 fixation) by LIPC- or CEase-digested immobilized LDL with human serum; type: biochemical
Procedure: 96-well MaxiSorp plates were coated with fresh human LDL (A, D, E), VLDL (B), or NaOH-hydrolyzed LDL (C). After blocking with BSA, the plates, except (C), were digested with LIPC. To test complement activation, the plates were incubated with diluted native human serum (N), C1q-depleted human serum (Cd), factor B-depleted human serum (Bd), or human serum containing Mg-EGTA (ME). C3 fixation on the plate was detected with a monoclonal anti-C3d antibody followed by HRP-conjugated secondary antibody. Specific conditions for LIPC digestion and HRP-catalyzed color development of each experiment were outlined as following: LIPC was used at 10 μg/ml for (A, B, E), 0-50 μg/ml for (D), and no LIPC for (C). LIPC degradation was 1 hour for (D), 2 hours for (A, B), and 0-2 hours for (E). Color development was 15 minutes for (A, B, C, E) and 10 minutes for (D). For NaOH hydrolysis of LDL, 1.35 mg/ml of LDL was incubated in 0.15M NaOH solution at 25° C. for up to 60 minutes. Aliquots were taken out and neutralized with 0.15M HCl at 1, 10, 20, 60 minutes.
LIPC and CEase, both having 8 μUnits of phospholipase A1 activity but having 3 μUnits and 8125 μUnits of triglyceride hydrolase activity respectively, were used for 2 hours digestion of immobilized LDL. Complement activation with diluted native human serum is then determined as in FIG. 1. The HRP-catalyzed color development was 15 minutes.
Human LDL coating and 1 hour (C) or 2 hours (A, B) LIPC digestion was performed as described in FIG. 1. (A) For complement activation, 0-50 μM of phosphocholine was added into diluted native human serum. […]
as §2, with “The monoclonal anti-human C3d antibody is reactive to all C3d-containing fragments of C3, but not with C3 itself, so it detects C3 fixation on the plate and not C3 absorption.” left out

C5b-9 = test: Terminal complement complex (C5b-9) formation by LIPC-digested LDL; type: biochemical; conditions: human serum with additional CRP
Procedure: Immobilized LDL was digested by LIPC and then incubated with human serum with or without additional CRP. C3 fixation (A) and C5b-9 formation (B) was determined by specific primary and HRP-conjugated secondary antibodies.
as §1, with “The diluent for serum dilution was PBS containing calcium and magnesium, and human sera that were utilized in our study were native serum, C1q-depleted serum, factor B-depleted serum, native serum with addition of 10 mM of MgCl2 and 20 mM EGTA (Mg-EGTA), and native serum with addition of 10 mM EDTA.” left out
as §2, with “The monoclonal anti-human C3d antibody is reactive to all C3d-containing fragments of C3, but not with C3 itself, so it detects C3 fixation on the plate and not C3 absorption.” left out

## 2-hydroxypropyl-α-cyclodextrin [HPαCD]
[1]; FIG. 7 representative result
  neovascularization area and vessel length: reduced dramatically
[1]; topical after alkali burn, right eye vs control formula left eye, three rabbits
  inhibition of corneal neovascularization: dramatic effect of HPαCD extraction on inhibition of corneal neovascularization
[2]; 0-20 mM HPαCD for 20 hours, 20 mM HPαCD for 0-20 hours
  extraction of complement-activating lysophospholipids, dose and time dependence: dose- and time-dependent
[2]; 2 mM HPαCD alone, 20 hours extraction
  extraction of lysophospholipids, HPαCD alone at low level: cannot extract much lysophospholipids
[2]; 2 mM HPαCD with 0.5 mg/ml native LDL, 20 hours extraction
  extraction of lysophospholipids, HPαCD in combination with native LDL: extract the most lysophospholipids
[2]; 20 hours extraction
  complement activation after cyclodextrin extraction of LIPC-digested LDL: significantly less complement activation; also recorded: Significant extraction of lysophospholipids
ARPE-19 cells; 100 μM LPC pre-incubated 1 hour with 0-20 mM HPαCD
  HPαCD concentration giving significant protection of ARPE-19 cells: ≥ 0.5 mM

## 2-hydroxypropyl-β-cyclodextrin [reference compound]
[2]; 20 hours extraction
  complement activation after cyclodextrin extraction of LIPC-digested LDL: much weaker effects

## CCCCCCCCCCCCCCCC(=O)OC[C@@H](O)COP(=O)([O-])OCC[N+](C)(C)C [1-palmitoyl-sn-glycero-3-phosphocholine, reference compound]
ARPE-19 cells; serum-free medium, 22 hours, 0-100 μM tested
  concentration inducing ARPE-19 cell death: ≥ 20 μM

## C[N+](C)(C)CCOP(=O)([O-])O [phosphocholine, reference compound]
[3]; 0-50 μM phosphocholine in diluted native human serum
  complement activation by LIPC-digested LDL, phosphocholine added into serum: significantly decreases complement activation

## OC[C@H]1O[C@@H]2O[C@H]3[C@H](O)[C@@H](O)[C@@H](O[C@H]4[C@H](O)[C@@H](O)[C@@H](O[C@H]5[C@H](O)[C@@H](O)[C@@H](O[C@H]6[C@H](O)[C@@H](O)[C@@H](O[C@H]7[C@H](O)[C@@H](O)[C@@H](O[C@H]1[C@H](O)[C@H]2O)O[C@@H]7CO)O[C@@H]6CO)O[C@@H]5CO)O[C@@H]4CO)O[C@@H]3CO [α-cyclodextrin, reference compound]
[2]; 20 hours extraction
  complement activation after cyclodextrin extraction of LIPC-digested LDL: much weaker effects

## OC[C@H]1O[C@@H]2O[C@H]3[C@H](O)[C@@H](O)[C@@H](O[C@H]4[C@H](O)[C@@H](O)[C@@H](O[C@H]5[C@H](O)[C@@H](O)[C@@H](O[C@H]6[C@H](O)[C@@H](O)[C@@H](O[C@H]7[C@H](O)[C@@H](O)[C@@H](O[C@H]8[C@H](O)[C@@H](O)[C@@H](O[C@H]1[C@H](O)[C@H]2O)O[C@@H]8CO)O[C@@H]7CO)O[C@@H]6CO)O[C@@H]5CO)O[C@@H]4CO)O[C@@H]3CO [β-cyclodextrin, reference compound]
[2]; 20 hours extraction
  complement activation after cyclodextrin extraction of LIPC-digested LDL: much weaker effects

## methyl-β-cyclodextrin [reference compound]
[2]; 20 hours extraction
  complement activation after cyclodextrin extraction of LIPC-digested LDL: much weaker effects

B1: CRP: purified human CRP, binding protein of lysophosphatidylcholine (protein, UniProt P02741 19-224, looked up)
C-reactive protein: QTDMSRKAFVFPKESDTSYVSLKAPLTKPLKAFTVCLHFYTELSSTRGYSIFSYATKRQDNEILIFWSKDIGYSFTVGGSEILFEVPEVTVAPVHICTSWESASGIVEFWVDGKPRVRKSLKKGYTVGAEASIILGQEQDSFGGNFEGSQSLVGDIGNVNMWDFVLSPDEINTIYLGGPFSPNVLNWRALKYEVQGEVFTKPQLWP
C5b-9
  terminal complement complex formation with additional CRP: blocks the terminal complement complex formation
[3]; native human serum supplemented with purified human CRP
  C3 fixation by LIPC-digested LDL with additional CRP: dose-dependently enhances its activity on complement activation; also recorded: enhances C3 fixation
